Structures can show the parent of a compound that is named as a salt.

T1 sequence (O95180 whole entry): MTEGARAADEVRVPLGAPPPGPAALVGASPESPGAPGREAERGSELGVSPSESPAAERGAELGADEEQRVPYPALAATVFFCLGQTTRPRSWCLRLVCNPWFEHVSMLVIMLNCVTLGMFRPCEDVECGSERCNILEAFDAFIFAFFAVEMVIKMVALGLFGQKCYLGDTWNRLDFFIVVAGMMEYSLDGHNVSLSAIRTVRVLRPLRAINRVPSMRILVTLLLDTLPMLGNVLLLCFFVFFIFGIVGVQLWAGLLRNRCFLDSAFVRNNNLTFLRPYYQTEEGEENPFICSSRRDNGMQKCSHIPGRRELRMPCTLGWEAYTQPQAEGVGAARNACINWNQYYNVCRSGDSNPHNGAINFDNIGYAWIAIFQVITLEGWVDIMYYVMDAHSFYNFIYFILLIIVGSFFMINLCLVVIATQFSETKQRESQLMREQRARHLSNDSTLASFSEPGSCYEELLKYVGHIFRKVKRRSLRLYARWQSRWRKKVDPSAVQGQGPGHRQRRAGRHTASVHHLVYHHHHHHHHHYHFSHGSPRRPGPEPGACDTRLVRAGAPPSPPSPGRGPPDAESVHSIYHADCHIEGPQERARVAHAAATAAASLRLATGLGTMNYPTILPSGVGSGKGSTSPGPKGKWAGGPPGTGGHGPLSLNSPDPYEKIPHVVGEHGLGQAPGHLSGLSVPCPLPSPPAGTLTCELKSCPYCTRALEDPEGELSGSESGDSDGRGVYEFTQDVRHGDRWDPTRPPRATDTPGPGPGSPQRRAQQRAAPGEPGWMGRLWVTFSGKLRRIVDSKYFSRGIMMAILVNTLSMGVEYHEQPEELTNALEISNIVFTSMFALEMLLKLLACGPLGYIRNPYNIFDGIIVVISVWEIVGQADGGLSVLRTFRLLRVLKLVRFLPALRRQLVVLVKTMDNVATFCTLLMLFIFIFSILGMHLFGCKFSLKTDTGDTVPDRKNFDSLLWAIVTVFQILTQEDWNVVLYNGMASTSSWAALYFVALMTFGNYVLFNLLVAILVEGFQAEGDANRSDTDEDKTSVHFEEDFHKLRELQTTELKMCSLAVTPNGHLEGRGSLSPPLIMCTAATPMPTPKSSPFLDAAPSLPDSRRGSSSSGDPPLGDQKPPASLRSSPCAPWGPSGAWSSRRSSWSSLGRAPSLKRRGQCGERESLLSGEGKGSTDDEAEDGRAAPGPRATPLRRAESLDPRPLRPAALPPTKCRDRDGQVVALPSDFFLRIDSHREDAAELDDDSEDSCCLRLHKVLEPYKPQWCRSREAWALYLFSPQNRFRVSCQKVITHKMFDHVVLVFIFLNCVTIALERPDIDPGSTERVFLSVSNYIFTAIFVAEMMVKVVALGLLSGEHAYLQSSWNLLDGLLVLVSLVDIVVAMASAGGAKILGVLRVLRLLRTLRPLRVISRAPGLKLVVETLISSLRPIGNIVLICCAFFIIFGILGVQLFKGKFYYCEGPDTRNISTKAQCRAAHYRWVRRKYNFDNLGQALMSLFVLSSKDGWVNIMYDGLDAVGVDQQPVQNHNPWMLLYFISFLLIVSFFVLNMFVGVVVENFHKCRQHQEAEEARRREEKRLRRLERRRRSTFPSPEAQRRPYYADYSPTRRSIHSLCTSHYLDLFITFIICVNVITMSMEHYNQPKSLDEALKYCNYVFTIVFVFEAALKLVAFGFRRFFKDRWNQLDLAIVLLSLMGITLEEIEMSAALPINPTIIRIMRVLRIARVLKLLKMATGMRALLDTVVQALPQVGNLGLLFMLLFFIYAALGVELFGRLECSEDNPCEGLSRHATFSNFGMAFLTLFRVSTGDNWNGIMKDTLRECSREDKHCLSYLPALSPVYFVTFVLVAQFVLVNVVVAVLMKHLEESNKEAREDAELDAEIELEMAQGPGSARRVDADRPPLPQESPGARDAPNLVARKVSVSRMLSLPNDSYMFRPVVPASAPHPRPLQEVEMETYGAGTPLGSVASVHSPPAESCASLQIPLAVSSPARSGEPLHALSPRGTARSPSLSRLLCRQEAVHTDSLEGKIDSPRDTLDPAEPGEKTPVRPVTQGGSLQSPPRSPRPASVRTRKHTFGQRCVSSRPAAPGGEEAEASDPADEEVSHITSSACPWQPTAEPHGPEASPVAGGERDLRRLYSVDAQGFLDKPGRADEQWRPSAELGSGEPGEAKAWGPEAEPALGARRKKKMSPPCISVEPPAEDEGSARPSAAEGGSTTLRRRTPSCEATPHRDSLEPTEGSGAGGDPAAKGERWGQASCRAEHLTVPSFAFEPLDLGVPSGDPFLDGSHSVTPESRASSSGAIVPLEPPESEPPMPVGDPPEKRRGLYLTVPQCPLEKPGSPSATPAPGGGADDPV

The first experiment concerns the target T1, human Cav3.2 T-type Ca2+ channel (Homo sapiens, UniProt O95180).
T1 construct: expressed in transfected cells; host or cells: KJMGER8 cells (Namalwa cell-derived cell line)
Description: Inhibitory effect for intracellular calcium response via Cav3.2 T-type Ca2+ channels (FLIPR Calcium 3 Assay Kit). The class given is cell-based.
Conditions: not given
As for `CC(C)(C)c1nc2cc(C(=O)NC3CC4(COC4)C3)c(Cl)cn2c1CC1CCC(F)(F)CC1` [Compound 148, 2-tert-Butyl-6-chloro-3-[(4,4-difluorocyclohexyl)methyl]-N-(2-oxaspiro[3.3]heptane-6-yl)imidazo[1,2-a]pyridine-7-carboxamide], the IC50 was not above 100 nM.

Turning to `O=C(CNC(=O)c1cc(Cl)n2c(CC3CCC(F)(F)CC3)c(C(F)(F)F)nc2c1)Nc1ccccc1` [Compound 151, 5-Chloro-3-[(4,4-difluorocyclohexyl)methyl]-N-[2-oxo-2-(phenylamino)ethyl]-2-(trifluoromethyl)imidazo[1,2-a]pyridine-7-carboxamide], the IC50 was not above 100 nM.

Turning to `CC(C)(CO)CNC(=O)c1cc(C#N)n2c(CC3CCC(F)(F)CC3)c(C(F)(F)F)nc2c1` [Compound 155, 5-Cyano-3-[(4,4-difluorocyclohexyl)methyl]-N-(3-hydroxy-2,2-dimethylpropyl)-2-(trifluoromethyl)imidazo[1,2-a]pyridine-7-carboxamide], the IC50 was not above 100 nM.

On to `CN(C)C(C)(C)CNC(=O)c1cc(C#N)n2c(CC3CCC(F)(F)CC3)c(C(F)(F)F)nc2c1` [Compound 156, 5-Cyano-3-[(4,4-difluorocyclohexyl)methyl]-N-[2-(dimethylamino)-2-methylpropyl]-2-(trifluoromethyl)imidazo[1,2-a]pyridine-7-carboxamide], for which the IC50 is not above 100 nM.

For the molecule `CC(C)(CNC(=O)c1cc(C#N)n2c(CC3CCC(F)(F)CC3)c(C(F)(F)F)nc2c1)COC=O` [Compound 157, 3-(5-Cyano-3-[(4,4-difluorocyclohexyl)methyl]-2-(trifluoromethyl)imidazo[1,2-a]pyridine-7-carboxamide)-2,2-dimethylpropyl formate], the IC50 was not above 100 nM.

Take `CC(F)(F)c1nc2cc(C(=O)NC3CCOCC3)cc(C=O)n2c1CC1CCC(F)(F)CC1` [Compound 158, 3-[(4,4-Difluorocyclohexyl)methyl]-2-(1,1-difluoroethyl)-5-formyl-N-(tetrahydro-2H-pyran-4-yl)imidazo[1,2-a]pyridine-7-carboxamide]: the IC50 is not above 100 nM.

Regarding `CC(F)(F)c1nc2cc(C(=O)NC3CCOCC3)cc(C#N)n2c1CC1CCC(F)(F)CC1` [Compound 159, 5-Cyano-3-[(4,4-difluorocyclohexyl)methyl]-2-(1,1-difluoroethyl)-N-(tetrahydro-2H-pyran-4-yl)imidazo[1,2-a]pyridine-7-carboxamide], the IC50 was not above 100 nM.

Take `CC(C)(C)C(=O)CNC(=O)c1cc(C#N)n2c(CC3CCC(F)(F)CC3)c(C(F)(F)F)nc2c1` [Compound 160, 5-Cyano-3-[(4,4-difluorocyclohexyl)methyl]-N-(3,3-dimethyl-2-oxobutyl)-2-(trifluoromethyl)imidazo[1,2-a]pyridine-7-carboxamide]: the IC50 was not above 100 nM.

As for `CCOC(=O)C1(NC(=O)c2cc(C#N)n3c(CC4CCC(F)(F)CC4)c(C(F)(F)F)nc3c2)CC1` [Compound 161, Ethyl 1-{5-cyano-3-[(4,4-difluorocyclohexyl)methyl]-2-(trifluoromethyl)imidazo[1,2-a]pyridine-7-carboxamide}cyclopropanecarboxylate], the IC50 is not above 100 nM.

With `CC(C)(CO)NC(=O)c1cc(C#N)n2c(CC3CCC(F)(F)CC3)c(C(F)(F)F)nc2c1` [Compound 162], the IC50 is not above 100 nM.

As for `Cc1c(C(=O)NC2CCOCC2)cc(C)n2c(CC3CCC(F)(F)CC3)c(C(F)(F)F)nc12` [Compound 166, 3-[(4,4-Difluorocyclohexyl)methyl]-5,8-dimethyl-N-(tetrahydro-2H-pyran-4-yl)-2-(trifluoromethyl)imidazo[1,2-a]pyridine-7-carboxamide], the IC50 is not above 100 nM.

In the case of `Cc1c(C(=O)NC2CCOCC2)cc2nc(C(F)(F)F)c(CC3CCC(F)(F)CC3)n2c1C` [Compound 167, 3-[(4,4-Difluorocyclohexyl)methyl]-5,6-dimethyl-N-(tetrahydro-2H-pyran-4-yl)-2-(trifluoromethyl)imidazo[1,2-a]pyridine-7-carboxamide], the IC50 is not above 100 nM.

With `CC(C)c1nc2cc(C(=O)NC3CC(F)(F)C3)cc(C#N)n2c1CC1CCC(F)(F)CC1` [Compound 170, 5-Cyano-N-(3,3-difluorocyclobutyl)-3-[(4,4-difluorocyclohexyl)methyl]-2-isopropylimidazo[1,2-a]pyridine-7-carboxamide], the IC50 was not above 100 nM.

On to `CC(C)c1nc2cc(C(=O)NCC(F)(F)F)cc(C#N)n2c1CC1CCC(F)(F)CC1` [Compound 171, 5-Cyano-3-[(4,4-difluorocyclohexyl)methyl]-2-isopropyl-N-(2,2,2-trifluoroethyl)imidazo[1,2-a]pyridine-7-carboxamide], for which the IC50 is not above 100 nM.

For `O=C(NCC(=O)N1CC(F)(F)C1)c1cc(Cl)n2c(CC3CCC(F)(F)CC3)c(C(F)(F)F)nc2c1` [Compound 172, 5-Chloro-N-[2-(3,3-difluoroazetidin-1-yl)-2-oxoethyl]-3-[(4,4-difluorocyclohexyl)methyl]-2-(trifluoromethyl)imidazo[1,2-a]pyridine-7-carboxamide], the IC50 is not above 100 nM.

Consider `O=C(NCC1(CO)CC1)c1cc(Cl)n2c(CC3CCC(F)(F)CC3)c(C(F)(F)F)nc2c1` [Compound 174, 5-Chloro-3-[(4,4-difluorocyclohexyl)methyl]-N-{[1-(hydroxymethyl)cyclopropyl]methyl}-2-(trifluoromethyl)imidazo[1,2-a]pyridine-7-carboxamide], for which the IC50 is not above 100 nM.

Turning to `N#CC1(NC(=O)c2cc(Cl)n3c(CC4CCC(F)(F)CC4)c(C(F)(F)F)nc3c2)CC1` [Compound 175, 5-Chloro-N-(1-cyanocyclopropyl)-3-[(4,4-difluorocyclohexyl)methyl]-2-(trifluoromethyl)imidazo[1,2-a]pyridine-7-carboxamide], the IC50 was not above 100 nM.

As to `CC(C)c1nc2cc(C(=O)NCC(C)(F)F)cc(C#N)n2c1CC1CCC(F)(F)CC1` [Compound 177, 5-Cyano-3-[(4,4-difluorocyclohexyl)methyl]-N-(2,2-difluoropropyl)-2-isopropylimidazo[1,2-a]pyridine-7-carboxamide], the IC50 is not above 100 nM.

As to `CC(F)(F)c1nc2cc(C(=O)N[C@H]3C[C@@H]4CC[C@H]3O4)cc(C=O)n2c1CC1CCC(F)(F)CC1` [Compound 179, N-[(1R,2S,4S)-7-Oxabicyclo[2.2.1]heptan-2-yl]-3-[(4,4-difluorocyclohexyl)methyl]-2-(1,1-difluoroethyl)-5-formylimidazo[1,2-a]pyridine-7-carboxamide], the IC50 was not above 100 nM.

On to `C[C@H](NC(=O)c1cc(C#N)n2c(CC3CCC(F)(F)CC3)c(C(F)(F)F)nc2c1)C(=O)N(C)C` [Compound 187, (S)-5-Cyano-3-[(4,4-difluorocyclohexyl)methyl]-N-[1-(dimethylamino)-1-oxopropan-2-yl]-2-(trifluoromethyl)imidazo[1,2-a]pyridine-7-carboxamide], for which the IC50 was not above 100 nM.

On to `N#Cc1cc(C(=O)NC23CCN(CC2)C3)cc2nc(C(F)(F)F)c(CC3CCC(F)(F)CC3)n12` [Compound 188, N-(1-Azabicyclo[2.2.1]heptan-4-yl)-5-cyano-3-[(4,4-difluorocyclohexyl)methyl]-2-(trifluoromethyl)imidazo[1,2-a]pyridine-7-carboxamide], for which the concentration for half-maximal inhibition (IC50) is not above 100 nM.

Regarding `[2H]C([2H])([2H])OC(C)(C)CNC(=O)c1cc(CO)n2c(CC3CCC(F)(F)CC3)c(C(C)(F)F)nc2c1` [Compound 192, 3-[(4,4-Difluorocyclohexyl)methyl]-2-(1,1-difluoroethyl)-5-(hydroxymethyl)-N-(2-methoxy-d3-2-methylpropyl)imidazo[1,2-a]pyridine-7-carboxamide], the IC50 was not above 100 nM.

Consider `Cc1c(C(=O)NC2CCOCC2)cc2nc(C(F)(F)F)c(CC3CCC(F)(F)CC3)n2c1Cl` [Compound 195, 5-Chloro-3-[(4,4-difluorocyclohexyl)methyl]-6-methyl-N-(tetrahydro-2H-pyran-4-yl)-2-(trifluoromethyl)imidazo[1,2-a]pyridine-7-carboxamide], for which the IC50 was not above 100 nM.

Still in this experiment, the particulars now being: human Cav3.2-expressing KJMGER8 cells (Namalwa-derived); calcium response induced by 5 mmol/L CaCl2; 3 μmol/L mibefradil as reference; read-out: IC50 for the human Cav3.2 T-type Ca2+ current.
Take `N#Cc1cc(C(=O)NCCCN2CCCC2=O)cc2nc(C(F)(F)F)c(CC3CCC(F)(F)CC3)n12` [Compound 149, 5-Cyano-3-[(4,4-difluorocyclohexyl)methyl]-N-[3-(2-oxopyrrolidin-1-yl)propyl]-2-(trifluoromethyl)imidazo[1,2-a]pyridine-7-carboxamide]: the IC50 was not above 100 nM.

In the case of `N#Cc1cc(C(=O)N2CCOC2=O)cc2nc(C(F)(F)F)c(CC3CCC(F)(F)CC3)n12` [Compound 150, 3-[(4,4-Difluorocyclohexyl)methyl]-7-(2-oxoxazolidine-3-carbonyl)-2-(trifluoromethyl)imidazo[1,2-a]pyridine-5-carbonitrile], the IC50 was not above 100 nM.

As to `Cc1cc(CNC(=O)c2cc(Cl)n3c(CC4CCC(F)(F)CC4)c(C(F)(F)F)nc3c2)[nH]n1` [Compound 152, 5-Chloro-3-[(4,4-difluorocyclohexyl)methyl]-N-[(3-methyl-1H-pyrazol-5-yl)methyl]-2-(trifluoromethyl)imidazo[1,2-a]pyridine-7-carboxamide], the IC50 was not above 100 nM.

`Cc1cc(CNC(=O)c2cc(Cl)n3c(CC4CCC(F)(F)CC4)c(C(F)(F)F)nc3c2)no1` [Compound 154, 5-Chloro-3-[(4,4-difluorocyclohexyl)methyl]-N-[(5-methylisoxazol-3-yl)methyl]-2-(trifluoromethyl)imidazo[1,2-a]pyridine-7-carboxamide]: the IC50 is not above 100 nM.

As to `CC(C)(Oc1ccccc1)c1c(C(F)(F)F)nc2cc(C(=O)Nc3ccccc3)ccn12` [Compound 163, 3-(2-Phenoxypropan-2-yl)-N-phenyl-2-(trifluoromethyl)imidazo[1,2-a]pyridine-7-carboxamide], the IC50 was not above 100 nM.

For the molecule `CC(C)(C)NC(=O)c1cc(C#N)n2c(CC3CCC(F)(F)CC3)c(C(F)(F)F)nc2c1` [Compound 198, N-tert-Butyl-5-cyano-3-[(4,4-difluorocyclohexyl)methyl]-2-(trifluoromethyl)imidazo[1,2-a]pyridine-7-carboxamide], the IC50 is not above 100 nM.
